The nature of series [1]: Quantitative targeted LC-MS/MS pharmacokinetics of AR ingredients in rat plasma after oral MBST. The format is in vivo. As to the method: Seven-week-old male Sprague-Dawley rats were purchased from Charles River Laboratories (Yokohama, Japan) and Japan SLC (Hamamatsu, Japan). The animals were housed under a temperature of 23 °C ± 3 °C and relative humidity of 50% ± 20%, with 12-h/12-h light/dark cycle and allowed free access to water and standard laboratory food (MF, Oriental Yeast Co., Ltd., Tokyo, Japan). The animals were used in experiments following habituation for several days.
Extract powders of AR or MBST were suspended in distilled water and orally administered to rats having fasted for approximately 16 h. The dose of AR was set at 2 g/kg, and the MBST doses were set at 1 and 2 g/kg. 1 g/kg MBST contained 578 µg/kg, 147 µg/kg, 226 µg/kg, 426 µg/kg asarinin, sesamin, methyl kakuol, and amide A, respectively. The doses were chosen based on a previous pharmacological study of MBST using rats.
Blood samples were centrifuged at 1700× g at 4 °C for 15 min to obtain plasma, of which samples were then stored at ≤−75 °C until analysis.
To quantify the plasma concentration of the AR components identified by the non-targeted analysis, the plasma samples at 0–24 h after MBST administration (1 or 2 g/kg) were supplied to targeted LC-MS/MS analysis in SRM mode with electrospray ionization.
For the quantification of methyl kakuol, amide A, asarinin, and sesamin in plasma, 100 µL of MBST-treated rat plasma was mixed with 20 µL of methanol (as the vehicle of the working solution described below) and 20 µL of internal standard niflumic acid (2 or 20 ng/mL). To prepare the calibration curve, the same volumes of blank plasma and various concentrations of working solution (final plasma concentration, 0.02–200 ng/mL) were used instead of the MBST-treated rat plasma and methanol. Finally, 500 µL of methanol was added for deproteinization. The mixture was centrifuged at 7000× g at 4 °C for 5 min. The supernatant was dried using a centrifugal evaporator. The dried residue was dissolved in 60 or 80 μL of the initial LC mobile phase which was composed of 5 mmol/L ammonium acetate in water/methanol (70/30, v/v), and then, a 5 or 10 μL aliquot was injected into the LC-MS/MS system. The injected sample was chromatographically separated using a YMC-Pack ODS-AQ column (2.0 ×150 mm I.D., 3-μm particle size; GL Sciences, Tokyo, Japan) at 30 °C. The mobile phase consisted of solution A (5 mmol/L ammonium acetate) as well as solution B (methanol), with a gradient of solution B (30%, 0 min; 70%, 25 min; 95%, 25.01–30 min; 30%, 30.01–35 min; v/v) at a flow rate of 0.3 mL/min. In brief, the compounds were analyzed using optimal MS/MS parameters as follows: methyl kakuol (m/z 209.056/176.1), amide A (m/z 248.174/57.1), asarinin (m/z 372.123/173.1), and sesamin (m/z 372.118/233.1). The calibration ranges for methyl kakuol, amide A, asarinin, and sesamin were 0.5–100 ng/mL, 0.5–200 ng/mL, 0.1–200 ng/mL, 0.1–200 ng/mL, respectively.
The AR ingredient levels in the plasma are presented as the mean + standard deviation. Pharmacokinetic parameters of plasma AR ingredients, such as the Cmax, AUC0-last, were calculated by non-compartmental analysis using the Phoenix WinNonlin software (Certara L.P., St. Louis, MO, USA). The concentration data were pooled per each time point; then, the mean concentration–time data were subjected to the non-compartmental analysis.

In series [2] the test system is LPS-induced NO production in RAW264.7 cells. Kind of series: LPS-induced NO production in RAW264.7 cells (Griess method). The format is cell-based, mouse. The settings on record: LPS 3 µg/mL, 24 h, mean of two experiments. As to the method: The experimental methods and results about the measurement of extracellular NO production are described as following.
Mouse macrophage-like RAW264. 7 cells were obtained from the European Collection of Authenticated Cell Cultures and cultured in Dulbecco’s Modified Eagle Medium (DMEM) containing 10% fetal bovine serum (FBS). The cells were maintained at 37 °C in a humidified incubator with an […]
RAW264. 7 cells were seeded in 48-well plates (6.0 × 10^4 cells per well) and incubated overnight, and then, 1 or 10 µmol/L of test compounds and 3 µg/mL of lipopolysaccharide (LPS; from Escherichia coli 0111: B4, L3024; Sigma-Aldrich) were added into the medium. Following 24 h after addition, 100 µL of conditioned media were collected and mixed with equal volume of Griess reagent (G4410; Sigma-Aldrich), and the mixture was incubated at room temperature for 15 min. Finally, absorbance was determined at 540 nm wave. Nitrite concentrations were quantified using a calibration curve obtained from a dilute solution of NaNO2. […]
production at concentrations of 1 or 10 µmol/L.
Table S3. Effect of Asiasari Radix ingredients on LPS -induced NO production.
Test Compound (% of LPS Control)
Amide A: (2E,4E,8Z,10E)-N-isobutyl-2,4,8,10-dodecatetraenamide. Each test compound (1 or 10 µmol/L) and lipopolysaccharide (LPS, 3 µg/mL) were added into a culture of RAW264. 7 cells. Following 24 h of substance addition, nitric oxide (NO) released in the cell medium was measured by Griess method. Percentage of NO production was calculated using the following equation: (nitrite concentration after treatment with test compound and LPS/nitrite concentration after treatment with LPS only) × 100. Each value represents the mean of two independent experiments
(In general: The Griess reaction detects nitrite, a stable product of nitric oxide.)

The mark [3] stands for this setting: male, Sprague-Dawley, rat, in vivo, po, 1 g/kg.
The mark [4] stands for this setting: male, Sprague-Dawley, rat, in vivo, po, 2 g/kg.

The structures appear in SMILES notation. Like-named read-outs stand apart in the source and are kept apart here.

A word on the Cmax: it is the highest concentration seen after dosing. What is called Tmax is the time at which the peak concentration occurs. In the case of `C/C=C/C=C\CC/C=C/C=C/C(=O)NCC(C)C` [Amide A, (2E,4E,8Z,10E)-N-isobutyl-2,4,8,10-dodecatetraenamide], the AUC(0-t) was found to be 4.87 ng·h/mL in series [1] (male, Sprague-Dawley, rat plasma, oral MBST 1 g/kg, read-out: AUC0-last) and 18.4 ng·h/mL in series [1] (male, Sprague-Dawley, rat plasma, oral MBST 2 g/kg, read-out: AUC0-last). Moreover, the Cmax worked out at 4.08 ng/mL in series [1] (male, Sprague-Dawley, rat plasma, oral MBST 1 g/kg, read-out: Cmax) and 6.07 ng/mL in series [1] (male, Sprague-Dawley, rat plasma, oral MBST 2 g/kg, read-out: Cmax). For the same compound, the k el in series [1] (male, Sprague-Dawley, rat plasma, oral MBST 1 g/kg, read-out: kel (converted)) was 0.000211 s⁻¹; in series [1] (male, Sprague-Dawley, rat plasma, oral MBST 2 g/kg, read-out: kel (converted)), 6.58e-05 s⁻¹. Moreover, the half-life in series [1] (male, Sprague-Dawley, rat plasma, oral MBST 1 g/kg, read-out: t1/2 (converted)) is 54.7 min; in series [1] (male, Sprague-Dawley, rat plasma, oral MBST 2 g/kg, read-out: t1/2 (converted)), 175 min. Moreover, the time of peak concentration (Tmax) in series [1] (male, Sprague-Dawley, rat plasma, oral MBST 1 g/kg, read-out: tmax) came to 30 min; in series [1] (male, Sprague-Dawley, rat plasma, oral MBST 2 g/kg, read-out: tmax) it was 15 min. Besides, the “NO Production (% of LPS Control)” value in series [2] (1 µmol/L test compound) is 92 % of LPS Control; in series [2] (10 µmol/L test compound) it was 82 % of LPS Control.

For `c1cc2c(cc1[C@H]1OC[C@H]3[C@@H]1CO[C@H]3c1ccc3c(c1)OCO3)OCO2` [Asarinin, (−)-Asarinin], in series [1] (setting [3]), the AUC(0-t) is 16.3 ng·h/mL, the highest level (Cmax) was 8.42 ng/mL, the time of peak concentration (Tmax) worked out at 15 min and the half-life was 91.2 min. The k el in series [1] (setting [3]) was 0.000127 s⁻¹. Also, in series [1] (setting [4]), the AUC(0-t) was found to be 38.6 ng·h/mL, the Cmax amounted to 14.7 ng/mL, the Tmax is 15 min and the half-life is 176 min. The compound also showed a k el in series [1] (setting [4]) of 6.58e-05 s⁻¹. Further, the “NO Production (% of LPS Control)” value in series [2] (1 µmol/L test compound) was 99 % of LPS Control. Besides, the “NO Production (% of LPS Control)” value in series [2] (10 µmol/L test compound) is recorded as 97 % of LPS Control.

Turning to `CCC(=O)c1cc2c(cc1OC)OCO2` [Methyl kakuol], in series [1] (rat plasma, oral MBST 1 g/kg), the AUC0-last came to 22.5 ng·h/mL, the Cmax turned out to be 26.7 ng/mL, the time of peak concentration (Tmax) was determined as 30 min and the k el came to 0.000425 s⁻¹. Moreover, the t1/2 in series [1] (rat plasma, oral MBST 1 g/kg) amounted to 27.1 min. Moreover, in series [1] (rat plasma, oral MBST 2 g/kg), the AUC0-last was determined as 214 ng·h/mL, the highest concentration (Cmax) came to 98.2 ng/mL, the Tmax is 60 min and the k el was 0.000153 s⁻¹. Moreover, in series [1] (rat plasma, oral MBST 2 g/kg), the t1/2 is 75.6 min. Moreover, the “NO Production (% of LPS Control)” value in series [2] (1 µmol/L test compound) was 102 % of LPS Control. For the same compound, the “NO Production (% of LPS Control)” value in series [2] (10 µmol/L test compound) is 93 % of LPS Control.

On to `c1cc2c(cc1[C@H]1OC[C@H]3[C@@H]1CO[C@@H]3c1ccc3c(c1)OCO3)OCO2` [Sesamin], for which, in series [1] (setting [3]), the AUC(0-t) was 11.9 ng·h/mL, the peak concentration (Cmax) was found to be 5.63 ng/mL, the time of peak concentration (Tmax) was found to be 30 min and the half-life is 97.8 min. In series [1] (setting [3]), this compound showed a k el of 0.000118 s⁻¹. In series [1] (setting [4]), the AUC(0-t) stood at 28.7 ng·h/mL, the Cmax is 9.44 ng/mL, the Tmax was found to be 15 min and the half-life was 179 min. For the same compound, the k el in series [1] (setting [4]) is 6.44e-05 s⁻¹. Further, the “NO Production (% of LPS Control)” value in series [2] (1 µmol/L test compound) was 96 % of LPS Control. In addition, in series [2] (10 µmol/L test compound), the “NO Production (% of LPS Control)” value is 78 % of LPS Control.

The record behind these values is article PMC7570662, “In Vivo Pharmacokinetic Analysis Utilizing Non-Targeted and Targeted Mass Spectrometry and In Vitro Assay against Transient Receptor Potential Channels of Maobushisaishinto and Its Constituent Asiasari Radix” (Molecules, 2020).
